Patent publication US8551988B2, “Benzimidazole derivatives: preparation and pharmaceutical applications” (Mei Pharma, Inc., priority 2003, dated 2013)
Where two headings read alike, the source gives them in different places.

Key:
[1] = biological target: HDAC8 enzyme (recombinant GST-HDAC8) (Homo sapiens (Human), UniProt Q9BY41); experiment: In vitro HDAC assay (BIOMOL fluorescent-based HDAC activity assay), HDAC8; assay type: biochemical
Method: (§1) The assay has been carried out in 96 well format and the BIOMOL fluorescent-based HDAC activity assay has been applied. […] Flur de lys Developer was added and the reaction was incubated for 10 min. Briefly, deacetylation of the substrate sensitizes it to the developer, which then generates a fluorophore (symbol). The fluorophore is excited with 360 nm light and the emitted light (460 nm) is detected on a fluorometric plate reader (Tecan Ultra Microplate detection system, Tecan Group Ltd.).
(§2) The analytical software, Prism 3.0 has been used to generate IC50 from a series of data.

[2] = biological target: HDAC1 enzyme (recombinant GST-HDAC1) (Homo sapiens (Human), UniProt Q13547); experiment: In vitro HDAC assay (BIOMOL fluorescent-based HDAC activity assay), HDAC1; assay type: biochemical
Method: as §1, §2

[3] = read-out: HDAC8 Enzyme Activity IC50
[4] = read-out: HDAC1 Enzyme Activity IC50
[5] = Free base, read-out: IC50 (HDAC8)
[6] = Free base, read-out: IC50 (HDAC1)

HDAC8 enzyme (recombinant GST-HDAC8), sequence (Q9BY41 whole entry): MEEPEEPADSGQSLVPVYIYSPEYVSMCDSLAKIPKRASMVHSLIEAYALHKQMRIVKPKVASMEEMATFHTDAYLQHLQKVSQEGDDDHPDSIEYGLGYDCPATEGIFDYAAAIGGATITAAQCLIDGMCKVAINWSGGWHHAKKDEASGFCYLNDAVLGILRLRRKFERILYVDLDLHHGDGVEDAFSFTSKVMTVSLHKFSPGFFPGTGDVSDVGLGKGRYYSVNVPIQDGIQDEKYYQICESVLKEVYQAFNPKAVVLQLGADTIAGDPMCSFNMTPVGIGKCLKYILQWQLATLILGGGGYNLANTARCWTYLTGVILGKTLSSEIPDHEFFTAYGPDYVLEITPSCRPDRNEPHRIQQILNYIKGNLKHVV
HDAC1 enzyme (recombinant GST-HDAC1), sequence (Q13547 whole entry): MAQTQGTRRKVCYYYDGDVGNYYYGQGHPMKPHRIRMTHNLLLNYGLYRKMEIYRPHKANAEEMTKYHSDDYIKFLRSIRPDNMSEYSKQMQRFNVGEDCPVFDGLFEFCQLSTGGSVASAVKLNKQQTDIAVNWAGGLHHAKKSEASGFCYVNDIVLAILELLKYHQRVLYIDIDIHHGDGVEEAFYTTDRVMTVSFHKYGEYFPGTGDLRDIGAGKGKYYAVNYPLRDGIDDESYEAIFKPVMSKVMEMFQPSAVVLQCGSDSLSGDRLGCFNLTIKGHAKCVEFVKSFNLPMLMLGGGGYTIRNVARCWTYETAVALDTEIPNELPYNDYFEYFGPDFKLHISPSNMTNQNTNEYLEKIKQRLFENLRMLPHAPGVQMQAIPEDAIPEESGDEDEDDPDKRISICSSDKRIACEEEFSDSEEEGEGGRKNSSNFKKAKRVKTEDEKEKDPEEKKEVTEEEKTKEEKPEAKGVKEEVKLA

SMILES | IC50 [1, 3] | IC50 [2, 4] | also measured
CC(Cc1nc2cc(/C=C/C(=O)NO)ccc2n1CCCO)c1ccccc1 (centres unmarked) [Compound 1, N-Hydroxy-3-[1-(3-hydroxy-propyl)-2-(2-phenyl-propyl)-1H-benzimidazol-5-yl]-acrylamide] | 119 nM | 51 nM | –
COc1cc(Cn2c(CCc3ccccc3)nc3cc(/C=C/C(=O)NO)ccc32)cc(OC)c1OC [Compound 2, N-Hydroxy-3-[1-(3,4,5-trimethoxybenzyl)-2-(2-phenyl-ethyl)-1H-benzimidazol-5-yl]-acrylamide] | 355 nM | 26 nM | IC50 [1, 5]: 267 nM; IC50 [2, 6]: 43 nM; IC50 ([2]; Salt of CF3COOH, read-out: IC50 (HDAC1)): 49 nM
COc1cc(-c2nc3cc(/C=C/C(=O)NO)ccc3n2CCCO)ccc1OCc1ccccc1 [Compound 4, N-Hydroxy-3-[2-(4-benzyloxy-3-methoxy-phenyl)-1-(3-hydroxy-propyl)-1H-benzimidazole-5-yl]-acrylamide] | 790 nM | 1340 nM | –
COc1cc(-c2nc3cc(/C=C/C(=O)NO)ccc3n2CC(O)CO)ccc1OCc1ccccc1 (centres unmarked) [Compound 7, N-Hydroxy-3-[2-(4-benzyloxy-3-methoxy-phenyl)-1-(2,3-hydroxy-propyl)-1H-benzimidazole-5-yl]-acrylamide] | 336 nM | 1520 nM | –
O=C(/C=C/c1ccc2c(c1)nc(CCc1ccccc1)n2CC(O)CO)NO (centres unmarked) [Compound 8] | 454 nM | – | –
O=C(/C=C/c1ccc2c(c1)nc(-c1ccccn1)n2CC(O)CO)NO (centres unmarked) [Compound 9, N-Hydroxy-3-[1-(2,3-hydroxy-propyl)-2-(2-pyridyl)-1H-benzimidazol-5-yl]-acrylamide] | 344 nM | 1340 nM | –
O=C(/C=C/c1ccc2c(c1)nc(-c1ccncc1)n2CCCO)NO [Compound 11, N-Hydroxy-3-[1-(3-hydroxy-propyl)-2-(4-pyridyl)-1H-benzimidazol-5-yl]-acrylamide] | 161 nM | 846 nM | –
O=C(/C=C/c1ccc2c(c1)nc(-c1ccccn1)n2CCCO)NO [Compound 13, N-Hydroxy-3-[1-(3-hydroxy-propyl)-2-(2-pyridyl)-1H-benzimidazol-5-yl]-acrylamide] | 141 nM | – | –
O=C(/C=C/c1ccc2c(c1)nc(CCc1ccccc1)n2CCCO)NO [Compound 14, N-Hydroxy-3-[1-(3-hydroxy-propyl)-2-phenethyl-1H-benzimidazol-5-yl]-acrylamide] | 251 nM | 171 nM | –
COCCCn1c(CCc2ccccc2)nc2cc(/C=C/C(=O)NO)ccc21 [Compound 15] | 313 nM | – | –
O=C(/C=C/c1ccc2c(c1)nc(CCc1ccccc1)n2Cc1ccccn1)NO [Compound 16, N-Hydroxy-3-(2-phenethyl-1-(pyridin-2-yl)methyl-1H-benzimidazol-5-yl)-acrylamide] | 366 nM | 194 nM | –
CN(C)CC(C)(C)Cn1c(CCc2ccccc2)nc2cc(/C=C/C(=O)NO)ccc21 [Compound 17, N-Hydroxy-3-[1-(3-Dimethylamino-2,2-dimethyl-propyl)-2-phenethyl-1H-benzimidazol-5-yl]-acrylamide] | – | – | IC50 [1, 5]: 353 nM; IC50 [2, 6]: 29 nM; IC50 ([2]; Salt of HCl, read-out: IC50 (HDAC1)): 44 nM; IC50 ([2]; Salt of Methane sulfonic acid, read-out: IC50 (HDAC1)): 51 nM
O=C(/C=C/c1ccc2c(c1)nc(COCc1ccccc1)n2CCCO)NO [Compound 19] | 145 nM | 165 nM | –
O=C(/C=C/c1ccc2c(c1)nc(CCc1ccccc1)n2CCc1ccccc1)NO [Compound 26, N-Hydroxy-3-(1,2-Diphenethyl-1H-benzimidazol-5-yl]-acrylamide] | – | 876 nM | –
O=C(/C=C/c1ccc2c(c1)nc(COCc1ccccc1)n2CCc1cccnc1)NO [Compound 28] | 300 nM | – | –
CC(C)Cc1nc2cc(CCC(=O)NO)ccc2n1CCCO [Compound 29, N-Hydroxy-3-[1-(3-Hydroxy-propyl)-2-isobutyl-1H-benzimidazol-5-yl]-propionamide] | 34000 nM | – | –
CCCn1c(CCc2ccccc2)nc2cc(/C=C/C(=O)NO)ccc21 [Compound 36, N-Hydroxy-3-(2-phenethyl-1-propyl-1H-benzimidazol-5-yl}-acrylamide] | – | 227 nM | –
CCCn1cnc2cc(/C=C/C(=O)NO)ccc21 [Compound 37, N-Hydroxy-3-(1-propyl-1H-benzimidazol-5-yl}-acrylamide] | – | 897 nM | –
CCn1cnc2cc(/C=C/C(=O)NO)ccc21 [Compound 39, N-Hydroxy-3-(1-Ethyl-1H-benzimidazol-5-yl)-acrylamide] | – | 1220 nM | –
O=C(NO)c1ccc2c(c1)nc(CCc1ccccc1)n2CCCO [Compound 40, 1-(3-Hydroxy-propyl)-2-phenethyl-1H-benzimidazol-5-carboxylic acid hydroxyamide] | 441 nM | – | –
Cn1cnc2cc(/C=C/C(=O)NO)ccc21 [Compound 49, N-Hydroxy-3-(1-methyl-1H-benzimidazol-5-yl)-acrylamide] | – | 1400 nM | –
O=C(/C=C/c1ccc2[nH]c(CCc3ccccc3)nc2c1)NO [Compound 50, N-Hydroxy-3-(2-phenethyl-1H-benzimidazol-5-yl)-acrylamide] | – | 173 nM | –
CN(C)CCCCn1c(CCc2ccccc2)nc2cc(/C=C/C(=O)NO)ccc21 [Compound 57, N-Hydroxy-3-[1-(4-dimethylamino-butyl)-2-phenethyl-1H-benzimidazol-5-yl]-acrylamide] | – | 153 nM | –
Cn1c(CNCc2ccccc2)nc2cc(/C=C/C(=O)NO)ccc21 [Compound 60, N-Hydroxy-3-[2-(benzylamino-methyl)-1-methyl-1H-benzimidazol-5-yl]-acrylamide] | – | 116 nM | –
CN(C)CCCn1c(CCc2ccccc2)nc2cc(/C=C/C(=O)NO)ccc21 [Compound 63, N-Hydroxy-3-[1-(3-dimethylamino-propyl)-2-phenethyl-1H-benzimidazol-5-yl]-acrylamide] | – | 162 nM | –
CCn1c(CNCc2ccccc2)nc2cc(/C=C/C(=O)NO)ccc21 [Compound 64, N-Hydroxy-3-[2-(benzylamino-methyl)-ethyl-1H-benzimidazol-5-yl]-acrylamide] | – | 230 nM | –
CN(C)CC(C)(C)Cn1c(CCc2cccnc2)nc2cc(/C=C/C(=O)NO)ccc21 [Compound 86, N-Hydroxy-3-[1-(3-Dimethylamino-2,2-dimethyl-propyl)-2-(2-pyridin-3-yl-ethyl)-1H-benzimidazol-5-yl]-acrylamide] | – | 400 nM | –
CN(C)CC(C)(C)Cn1c(SCc2ccccc2)nc2cc(/C=C/C(=O)NO)ccc21 [Compound 89, N-Hydroxy-3-[2-benzylsulfanyl-1-(3-dimethylamino-2-2,dimethyl-propyl)-1H-benzimidazol-5-yl]-acrylamide] | – | 116 nM | –
CN(C)CC(C)(C)Cn1c([S+]([O-])Cc2ccccc2)nc2cc(/C=C/C(=O)NO)ccc21 (centres unmarked) [Compound 91] | – | 30 nM | –
COc1cccc(CCc2nc3cc(/C=C/C(=O)NO)ccc3n2CC(C)(C)CN(C)C)c1 [Compound 94, N-Hydroxy-3-(1-(3-dimethylamino-2,2-dimethyl-propyl)-2-[2-(3-methoxy-phenyl)-ethyl]-1H-benzimidazol-5-yl)-acrylamide] | – | 52 nM | –

More lines, main results first:

IC50 [1, 3] | IC50 [2, 4] | SMILES | also measured
401 nM | 4320 nM | COc1ccc(-c2nc3cc(/C=C/C(=O)NO)ccc3n2CCO)cc1 [Compound 5, N-Hydroxy-3-[1-(2-hydroxy-ethyl)-2-(4-methoxy-phenyl)-1H-benzimidazole-5-yl]-acrylamide] | –
883 nM | 2660 nM | O=C(/C=C/c1ccc2c(c1)nc(-c1ccncc1)n2CCO)NO [Compound 10, N-Hydroxy-3-[1-(2-hydroxy-ethyl)-2-(4-pyridyl)-1H-benzimidazol-5-yl]-acrylamide] | –
202 nM | 131 nM | O=C(/C=C/c1ccc2c(c1)nc(CCc1ccccc1)n2Cc1cccnc1)NO [Compound 12, N-Hydroxy-3-[1-(3-pyridylmethyl)-2-(2-phenyl-ethyl)-1H-benzimidazol-5-yl]-acrylamide] | –
290 nM | – | O=C(/C=C/c1ccc2c(c1)nc(CCc1ccccc1)n2CCc1ccccn1)NO [Compound 18] | –
234 nM | – | CC(C)Cc1nc2cc(/C=C/C(=O)NO)ccc2n1CCc1ccccn1 [Compound 22] | –
159 nM | – | CC(Cc1nc2cc(/C=C/C(=O)NO)ccc2n1CCc1cccnc1)c1ccccc1 (centres unmarked) [Compound 41] | –
– | 896 nM | O=C(/C=C/c1ccc2[nH]cnc2c1)NO [Compound 51, N-Hydroxy-3-(1H-benzimidazol-5-yl)-acrylamide] | –
– | 160 nM | Cn1c(CCCc2ccccc2)nc2cc(/C=C/C(=O)NO)ccc21 [Compound 52, N-Hydroxy-3-[1-methyl-2-(3-phenyl-propyl)-1H-benzimidazol-5-yl]-acrylamide] | –
– | 100 nM | Cn1c(CNC(=O)Cc2ccccc2)nc2cc(/C=C/C(=O)NO)ccc21 [Compound 54] | –
– | 371 nM | CCn1c(CCNCc2ccccc2)nc2cc(/C=C/C(=O)NO)ccc21 [Compound 74, N-Hydroxy-3-[2-(2-benzylamino-ethyl)-1-ethyl-1H-benzimidazol-5-yl]-acrylamide] | –
– | 304 nM | O=C(/C=C/c1ccc2c(c1)nc(CCc1ccccc1)n2CCCN1CCCC1)NO [Compound 82, N-Hydroxy-3-[2-phenethyl-1-(3-pyrrolidin-1-yl-propyl)-1H-benzimidazol-5-yl]-acrylamide] | –
– | 168 nM | CCn1c(Cc2ccccc2)nc2cc(/C=C/C(=O)NO)ccc21 [Compound 92, N-Hydroxy-3-(2-benzyl-1-ethyl-1H-benzimidazol-5-yl)-acrylamide] | –
– | 65 nM | CCn1c(CCCc2c[nH]c3ccccc23)nc2cc(/C=C/C(=O)NO)ccc21 [Compound 93, N-Hydroxy-3-(1-ethyl-2-[3-(1H-indol-3-yl)-propyl]-1H-benzimidazol-5-yl)-acrylamide] | –
– | 125 nM | CCn1c(CCCOc2ccccc2)nc2cc(/C=C/C(=O)NO)ccc21 [Compound 96, N-Hydroxy-3-[1-ethyl-2-(3-phenoxy-propyl)-1H-benzimidazol-5-yl]-acrylamide] | –
